# ChEMBL document CHEMBL1130756, “Synthesis and cytotoxic activity of novel 10-alkylated docetaxel analogs” (1998)
# What was measured:
# PC-6 = test: Concentration required to inhibit the growth of human lung cancer (PC-6)cell lines by 50% on 72 hr continuous exposure; type: functional; conditions: PC-6, 72 h
# P388 = test: Concentration required to inhibit the growth of mouse leukemia (P388) cell lines by 50% on 72 h continuous exposure; type: functional; conditions: P388, 72 h
SMILES,GI50 (PC-6) [ng/mL],GI50 (P388) [ng/mL]
COC(=O)CC[C@H]1C(=O)[C@]2(C)[C@@H](O)CC3OC[C@@]3(OC(C)=O)[C@H]2[C@H](OC(=O)c2ccccc2)[C@]2(O)C[C@H](OC(=O)[C@H](O)[C@@H](NC(=O)OC(C)(C)C)c3ccccc3)C(C)=C1C2(C)C (stereo partly drawn),0.771,3.3
CC(=O)CC[C@H]1C(=O)[C@]2(C)[C@@H](O)CC3OC[C@@]3(OC(C)=O)[C@H]2[C@H](OC(=O)c2ccccc2)[C@]2(O)C[C@H](OC(=O)[C@H](O)[C@@H](NC(=O)OC(C)(C)C)c3ccccc3)C(C)=C1C2(C)C (stereo partly drawn),0.266,7.12
CC(=O)O[C@@]12COC1C[C@H](O)[C@@]1(C)C(=O)[C@H](CCC#N)C3=C(C)[C@@H](OC(=O)[C@H](O)[C@@H](NC(=O)OC(C)(C)C)c4ccccc4)C[C@@](O)([C@@H](OC(=O)c4ccccc4)[C@@H]12)C3(C)C (stereo partly drawn),0.681,18.4
CC(=O)O[C@@]12COC1C[C@H](O)[C@@]1(C)C(=O)[C@H](CCCO)C3=C(C)[C@@H](OC(=O)[C@H](O)[C@@H](NC(=O)OC(C)(C)C)c4ccccc4)C[C@@](O)([C@@H](OC(=O)c4ccccc4)[C@@H]12)C3(C)C (stereo partly drawn),0.777,15.5
CC(=O)O[C@@]12COC1C[C@H](O)[C@@]1(C)C(=O)[C@H](CCC(=O)O)C3=C(C)[C@@H](OC(=O)[C@H](O)[C@@H](NC(=O)OC(C)(C)C)c4ccccc4)C[C@@](O)([C@@H](OC(=O)c4ccccc4)[C@@H]12)C3(C)C (stereo partly drawn),934,1870
CCOC(=O)CC[C@H]1C(=O)[C@]2(C)[C@@H](O)CC3OC[C@@]3(OC(C)=O)[C@H]2[C@H](OC(=O)c2ccccc2)[C@]2(O)C[C@H](OC(=O)[C@H](O)[C@@H](NC(=O)OC(C)(C)C)c3ccccc3)C(C)=C1C2(C)C (stereo partly drawn),1.35,4.31
CC(=O)O[C@@]12COC1C[C@H](O)[C@@]1(C)C(=O)[C@H](CCCN)C3=C(C)[C@@H](OC(=O)[C@H](O)[C@@H](NC(=O)OC(C)(C)C)c4ccccc4)C[C@@](O)([C@@H](OC(=O)c4ccccc4)[C@@H]12)C3(C)C (stereo partly drawn),236,1520
CC(=O)O[C@@]12CO[C@@H]1C[C@H](O)[C@@]1(C)C(=O)[C@H](O)C3=C(C)[C@@H](OC(=O)[C@H](O)[C@@H](NC(=O)OC(C)(C)C)c4ccccc4)C[C@@](O)([C@@H](OC(=O)c4ccccc4)[C@H]21)C3(C)C.O.O.O [DOCETAXEL],1.13,6.74
CC(=O)NCCC[C@H]1C(=O)[C@]2(C)[C@@H](O)CC3OC[C@@]3(OC(C)=O)[C@H]2[C@H](OC(=O)c2ccccc2)[C@]2(O)C[C@H](OC(=O)[C@H](O)[C@@H](NC(=O)OC(C)(C)C)c3ccccc3)C(C)=C1C2(C)C (stereo partly drawn),10.5,71.8
